Consider one compound from PMC10336507 (Heliyon, 2023).

In the experiment the target is M. SssI MTase (Spiroplasma monobiae, UniProt P15840). Put plainly: coupled fluorescence turn-off DNA methylation assay. The format is biochemical.

In general, IC50 refers to the concentration needed to halve the response being measured. Low values mean greater potency, high ones weaker potency.

Chain of M. SssI MTase (P15840 whole entry): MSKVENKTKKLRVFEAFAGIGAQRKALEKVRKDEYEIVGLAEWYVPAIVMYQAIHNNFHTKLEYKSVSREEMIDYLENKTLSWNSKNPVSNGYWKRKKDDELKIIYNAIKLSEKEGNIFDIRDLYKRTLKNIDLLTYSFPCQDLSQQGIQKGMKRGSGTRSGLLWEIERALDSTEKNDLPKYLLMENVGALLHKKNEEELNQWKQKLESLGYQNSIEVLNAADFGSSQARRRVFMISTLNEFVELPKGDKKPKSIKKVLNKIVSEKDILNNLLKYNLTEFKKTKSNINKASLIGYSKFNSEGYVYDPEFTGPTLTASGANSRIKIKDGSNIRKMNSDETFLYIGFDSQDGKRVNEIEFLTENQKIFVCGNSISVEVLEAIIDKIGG

`Nc1ncn([C@@H]2O[C@H](CO)[C@@H](O)[C@H]2O)c(=O)n1` [5-Aza, 5-Azacytidine] yielded an IC50 of 3.76 µM.
